Laboratory results reported in the supplement of paper PMC11061612.

Tests used:
Assay in all cases: Bliss excess, mean over the matrix (fraction); higher = more synergy
[1] = tested on: WSU-NHL (B-Cell Non-Hodgkin's Lymphoma)
How it was run: (§1)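 Cell lines grown in DMEM/F12 or RPMI with 10% FBS were plated in 1536-well plates and held 24 hours at 37°C, 5% CO2 before 72 hours of exposure to two-drug dose matrices, with DMSO typically at 0.2%. CellTiter-Glo 2.0 luminescence gave viability, which was converted to inhibition. Vehicle wells were set to 0 and blank wells to 1. Combination Emax is the second-highest inhibition in the matrix, and Bliss excess is the observed combination effect minus the expected EA + EB − EA·EB, where EA and EB are the single-agent effects.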

GAMG (Glioblastoma) = tested on: GAMG (Glioblastoma)
How it was run: as §1

A673 (Ewing's Sarcoma) = tested on: A673 (Ewing's Sarcoma)
How it was run: as §1

[2] = tested on: SNU-449 (Hepatocellular Carcinoma)
How it was run: as §1

KS-1 (Glioblastoma) = tested on: KS-1 (Glioblastoma)
How it was run: as §1

BE2-M17 (Neuroblastoma) = tested on: BE2-M17 (Neuroblastoma)
How it was run: as §1

[3] = tested on: HeLa (Cervical Carcinoma)
How it was run: as §1

[4] = tested on: NCI-H1568 (Lung Adenocarcinoma)
How it was run: as §1

[5] = tested on: MHH-CALL-2 (B-Lymphoblastic Leukemia)
How it was run: as §1

[6] = tested on: NUGC-4 (Gastric Carcinoma)
How it was run: as §1

SMILES | Bliss excess [1] | Bliss excess (GAMG (Glioblastoma)) | Bliss excess (A673 (Ewing's Sarcoma)) | Bliss excess [2] | Bliss excess (KS-1 (Glioblastoma)) | Bliss excess (BE2-M17 (Neuroblastoma)) | Bliss excess [3] | Bliss excess [4] | Bliss excess [5] | Bliss excess [6]
C=CCn1c(=O)c2cnc(Nc3ccc(N4CCN(C)CC4)cc3)nc2n1-c1cccc(C(C)(C)O)n1 [AZD1775] + CCc1c2c(nc3ccc(O)cc13)-c1cc3c(c(=O)n1C2)COC(=O)[C@]3(O)CC [SN-38] (first compound max 1 µM, partner max 0.3 µM) | -0.0306 | 0.001 | -0.0188 | -0.0298 | -0.0389 |  |  |  |  | 
C=CCn1c(=O)c2cnc(Nc3ccc(N4CCN(C)CC4)cc3)nc2n1-c1cccc(C(C)(C)O)n1 [AZD1775] + Nc1ccn([C@@H]2O[C@H](CO)[C@@H](O)C2(F)F)c(=O)n1 [Gemcitabine] (first compound max 1 µM, partner max 0.3 µM) | -0.0035 | 0.0684 | 0.039 | -0.0186 | 0.0304 |  |  |  |  | 
CN(CCO)CC[C@H](CSc1ccccc1)Nc1ccc(S(=O)(=O)NC(=O)c2ccc(N3CCC([C@@H](O)c4ccccc4-c4ccc(Cl)cc4)CC3)cc2)cc1S(=O)(=O)C(F)(F)F [AZD4320] + C1CN(CCC1(C(=O)N[C@@H](CCO)C2=CC=C(C=C2)Cl)N)C3=NC=NC4=C3C=CN4 [Capivasertib] (first compound max 1 µM, 7x7, partner max 3 µM) | -0.0413 | -0.0661 | 0.0099 | -0.0742 | -0.0435 | 0.006 | -0.0377 | -0.0518 | -0.0126 | -0.0706
CN(CCO)CC[C@H](CSc1ccccc1)Nc1ccc(S(=O)(=O)NC(=O)c2ccc(N3CCC([C@@H](O)c4ccccc4-c4ccc(Cl)cc4)CC3)cc2)cc1S(=O)(=O)C(F)(F)F [AZD4320] + C=CCn1c(=O)c2cnc(Nc3ccc(N4CCN(C)CC4)cc3)nc2n1-c1cccc(C(C)(C)O)n1 [AZD1775] (first compound max 1 µM, partner max 1 µM) | -0.0242 | 0.0041 | 0.082 | -0.0744 | 0.0327 | 0.0199 | -0.0523 | 0.0492 | 0.14 | -0.0217
CN(CCO)CC[C@H](CSc1ccccc1)Nc1ccc(S(=O)(=O)NC(=O)c2ccc(N3CCC([C@@H](O)c4ccccc4-c4ccc(Cl)cc4)CC3)cc2)cc1S(=O)(=O)C(F)(F)F [AZD4320] + CN(C)CCCOc1ccc(-c2ccc3ncc4c(c3c2)n(C2CCOCC2)c(=O)n4C)cn1 [AZD0156] (first compound max 1 µM, 7x7, partner max 1 µM) | -0.0238 | -0.0237 | 0.0419 | -0.0828 | -0.0136 | -0.0171 | -0.0321 | -0.0099 | 0.106 | -0.0513
CN(CCO)CC[C@H](CSc1ccccc1)Nc1ccc(S(=O)(=O)NC(=O)c2ccc(N3CCC([C@@H](O)c4ccccc4-c4ccc(Cl)cc4)CC3)cc2)cc1S(=O)(=O)C(F)(F)F [AZD4320] + CS(=O)(=O)CCNCc1ccc(-c2ccc3ncnc(Nc4ccc(OCc5cccc(F)c5)c(Cl)c4)c3c2)o1 [Lapatinib] (first compound max 1 µM, 7x7, partner max 10 µM) | 0.0183 | 0.1 | 0.0505 | 0.021 | 0.0137 |  |  |  |  | 
CN(CCO)CC[C@H](CSc1ccccc1)Nc1ccc(S(=O)(=O)NC(=O)c2ccc(N3CCC([C@@H](O)c4ccccc4-c4ccc(Cl)cc4)CC3)cc2)cc1S(=O)(=O)C(F)(F)F [AZD4320] + Cn1cnc2c(F)c(Nc3ccc(Br)cc3Cl)c(C(=O)NOCCO)cc21 [Selumetinib] (first compound max 1 µM, 7x7, partner max 3 µM) | -0.0491 | 0.0039 | 0.0944 | -0.0537 | -0.0051 | 0.0929 | -0.0092 | -0.0035 | 0.298 | 0.0784
Cc1c2c(nn1C)CSCc1cc(n(C)n1)CSc1cc(c3ccccc3c1)OCCCc1c(C(=O)O)n(C)c3c-2c(Cl)ccc13 [AZD5991] + CC(=O)O[C@H]1C(=O)[C@@]2(C)[C@H]([C@H](OC(=O)c3ccccc3)[C@]3(O)C[C@H](OC(=O)[C@H](O)[C@@H](NC(=O)c4ccccc4)c4ccccc4)C(C)=C1C3(C)C)[C@]1(OC(C)=O)CO[C@@H]1C[C@@H]2O [Paclitaxel] (first compound max 1 µM, 7x7, partner max 3 µM) | -0.0565 | 0.039 | 0.0296 | -0.0404 | -0.0057 |  |  |  |  | 
Cc1c2c(nn1C)CSCc1cc(n(C)n1)CSc1cc(c3ccccc3c1)OCCCc1c(C(=O)O)n(C)c3c-2c(Cl)ccc13 [AZD5991] + CCN(CCO)CCCOc1ccc2c(Nc3cc(CC(=O)Nc4cccc(F)c4)[nH]n3)ncnc2c1 [AZD2811] (first compound max 1 µM, 7x7, partner max 1 µM) | -0.0206 | 0.0105 | 0.0886 | -0.0041 | -0.0459 | 0.0668 | 0.0319 | -0.0051 | 0.0503 | 
Cc1c2c(nn1C)CSCc1cc(n(C)n1)CSc1cc(c3ccccc3c1)OCCCc1c(C(=O)O)n(C)c3c-2c(Cl)ccc13 [AZD5991] + Nc1ccn([C@@H]2O[C@H](CO)[C@@H](O)C2(F)F)c(=O)n1 [Gemcitabine] (first compound max 1 µM, 7x7, partner max 0.3 µM) | -0.0514 | -0.0026 | -0.021 | -0.0021 | -0.0354 |  |  |  |  | 
C[C@@H]1COCCN1c1cc(C2([S@](C)(=N)=O)CC2)nc(-c2ccnc3[nH]ccc23)n1 [AZD6738] + C1CC(C1)(C(=O)[O-])C(=O)[O-].N.N.[Pt+2] [Carboplatin] (first compound max 10 µM, 7x7, partner max 10 µM) | -0.054 | -0.0162 | 0.0216 | -0.0341 | -0.0536 |  |  |  |  | 
C[C@@H]1COCCN1c1cc(C2([S@](C)(=N)=O)CC2)nc(-c2ccnc3[nH]ccc23)n1 [AZD6738] + Nc1ccn([C@@H]2O[C@H](CO)[C@@H](O)C2(F)F)c(=O)n1 [Gemcitabine] (first compound max 10 µM, 7x7, partner max 0.3 µM) | 0.014 | 0.0615 | 0.0144 | 0.0623 | 0.0043 |  |  |  |  | 
C[C@@H](Nc1cc(F)cc(F)c1)c1cc(C(=O)N(C)C)cc2c(=O)cc(N3CCOCC3)oc12 [AZD8186] + CC(=O)c1c(C)c2cnc(Nc3ccc(N4CCNCC4)cn3)nc2n(C2CCCC2)c1=O [Palbociclib] (first compound max 10 µM, 7x7, partner max 10 µM) | -0.0144 | -0.0098 | 0.0743 | 0.0373 | 0.0069 |  |  |  |  | 
C[C@@H](Oc1cc(-c2cnn(C3CCNCC3)c2)cnc1N)c1c(Cl)ccc(F)c1Cl [Crizotinib] + CC1=C(C(=CC=C1)Cl)NC(=O)C2=CN=C(S2)NC3=CC(=NC(=N3)C)N4CCN(CC4)CCO [Dasatinib] (first compound max 10 µM, 7x7, partner max 2 µM) | 0.0202 | 0.0164 | -0.0281 | 0.0569 | 0.0499 |  |  |  |  | 
C[C@@H](Oc1cc(-c2cnn(C3CCNCC3)c2)cnc1N)c1c(Cl)ccc(F)c1Cl [Crizotinib] + Cn1cnc2c(F)c(Nc3ccc(Br)cc3Cl)c(C(=O)NOCCO)cc21 [Selumetinib] (first compound max 10 µM, 7x7, partner max 10 µM) | -0.0382 | -0.0308 | -0.0206 | -0.0665 | 0.0483 |  |  |  |  | 
CS(=O)(=O)CCNCc1ccc(-c2ccc3ncnc(Nc4ccc(OCc5cccc(F)c5)c(Cl)c4)c3c2)o1 [Lapatinib] + Cn1cnc2c(F)c(Nc3ccc(Br)cc3Cl)c(C(=O)NOCCO)cc21 [Selumetinib] (first compound max 10 µM, 7x7, partner max 10 µM) | -0.0093 | -0.06 | -0.039 | -0.0601 | -0.0387 |  |  |  |  | 
CS(=O)(=O)CCNCc1ccc(-c2ccc3ncnc(Nc4ccc(OCc5cccc(F)c5)c(Cl)c4)c3c2)o1 [Lapatinib] + NC1(c2ccc(-c3nc4ccn5c(=O)[nH]nc5c4cc3-c3ccccc3)cc2)CCC1 [MK-2206] (first compound max 10 µM, 7x7, partner max 10 µM) | -0.0237 | 0.016 | -0.064 | 0.0446 | -0.0185 |  |  |  |  | 
O=C(c1cc(Cc2n[nH]c(=O)c3ccccc23)ccc1F)N1CCN(C(=O)C2CC2)CC1 [Olaparib] + CC1(C)CCC(CN2CCN(c3ccc(C(=O)NS(=O)(=O)c4ccc(NCC5CCOCC5)c([N+](=O)[O-])c4)c(Oc4cnc5[nH]ccc5c4)c3)CC2)=C(c2ccc(Cl)cc2)C1 [Venetoclax] (first compound max 10 µM, 7x7, partner max 1 µM) | 0.0238 | -0.0303 | 0.0169 | -0.0418 | -0.0442 |  |  |  |  | 
O=C(c1cc(Cc2n[nH]c(=O)c3ccccc23)ccc1F)N1CCN(C(=O)C2CC2)CC1 [Olaparib] + CN(CC[C@H](CSC1=CC=CC=C1)NC2=C(C=C(C=C2)S(=O)(=O)NC(=O)C3=CC=C(C=C3)N4CCC(CC4)[C@H](C5=CC=CC=C5C6=CC=C(C=C6)Cl)O)S(=O)(=O)C(F)(F)F)CCO [AZD4320] (first compound max 10 µM, 7x7, partner max 1 µM) | 0.0345 | -0.034 | 0.0265 | -0.0422 | -0.041 |  |  |  |  | 
O=C(c1cc(Cc2n[nH]c(=O)c3ccccc23)ccc1F)N1CCN(C(=O)C2CC2)CC1 [Olaparib] + COc1nnc2ccc(N3CCC(c4ccc(OCCN5CCN(C)C(=O)[C@H]5C)cc4)CC3)nn12 [AZD5153] (first compound max 10 µM, 7x7, partner max 1 µM) | -0.06 | -0.002 | -0.077 | -0.0587 | -0.0205 |  |  |  |  | 
Cc1nc(-c2cn3c(n2)-c2ccc(-c4cnn(C(C)(C)C(N)=O)c4)cc2OCC3)n(C(C)C)n1 [Taselisib] + O=C(Nc1ccc2[nH]nc(-c3ccncc3)c2c1)[C@@H]1CCN(CC(=O)N2CCN(c3ccc(-c4ncccn4)cc3)CC2)C1 [SCH772984] (first compound max 10 µM, 7x7, partner max 5 µM) | 0.037 | 0.0241 | 0.131 | 0.0076 | 0.0097 |  |  |  |  | 
CC1(C)CCC(CN2CCN(c3ccc(C(=O)NS(=O)(=O)c4ccc(NCC5CCOCC5)c([N+](=O)[O-])c4)c(Oc4cnc5[nH]ccc5c4)c3)CC2)=C(c2ccc(Cl)cc2)C1 [Venetoclax] + CS(=O)(=O)CCNCc1ccc(-c2ccc3ncnc(Nc4ccc(OCc5cccc(F)c5)c(Cl)c4)c3c2)o1 [Lapatinib] (first compound max 1 µM, 7x7, partner max 10 µM) | 0.0482 | -0.0231 | -0.0426 | -0.0572 | -0.0411 |  |  |  |  | 
